Values joined by “and” are separate entries in the source; they are usually repeats but may differ in a detail not shown here. Identical values can stand only once.
Test system: 832693-133-R-J1-PDC multi-cell spheroids, viability
Test: Anticancer human tumor 832693-133-R-J1-PDC patient-derived head and neck squamous carcinoma cell line growth inhibition [IpAb]
Conditions: for viability, T/C: stronger effect = lower value
In short: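 Spheroids of 60% malignant cells, 25% HUVEC and 15% MSC were exposed to targeted agents combined with ipatasertib or abemaciclib. Doses started at or near clinical Cmax (10 microM when unknown) and fell in half-log steps.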

[1] = curve of first compound, second compound 0.1 µM
[2] = curve of first compound, second compound 0.316 µM
[3] = curve of first compound, second compound 1 µM
[4] = curve of first compound, second compound 3.16 µM
[5] = curve of first compound, second compound 10 µM
[6] = second compound 0.1 µM, first compound 0.00949 µM
[7] = second compound 0.1 µM, first compound 0.03 µM
[8] = second compound 0.1 µM, first compound 0.0949 µM
[9] = second compound 0.1 µM, first compound 0.3 µM
[10] = second compound 0.316 µM, first compound 0.00949 µM
[11] = second compound 0.316 µM, first compound 0.03 µM
[12] = second compound 0.316 µM, first compound 0.0949 µM
[13] = second compound 0.316 µM, first compound 0.3 µM
[14] = second compound 1 µM, first compound 0.00949 µM
[15] = second compound 1 µM, first compound 0.03 µM
[16] = second compound 1 µM, first compound 0.0949 µM
[17] = second compound 1 µM, first compound 0.3 µM
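Further: spheroids exposed to the drugs for one week before the viability readout.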
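Wherever viability, T/C is given: 100% = DMSO vehicle control wells.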

CC(C)n1nc(-c2ccc3oc(N)nc3c2)c2c(N)ncnc21
viability, T/C (compound 0.000316 µM): 94.6% and 91.2% | viability, T/C (compound 0.001 µM): 89.4% and 88.7% | viability, T/C (compound 0.00316 µM): 86.9% and 76% | viability, T/C (compound 0.01 µM): 76.9% and 68.7% | viability, T/C (compound 0.0316 µM): 67.5% and 60.2% | viability, T/C (compound 0.1 µM): 61.8% and 52.7% | IC50 (curve of compound): > 100 nM

C=CCn1c(=O)c2cnc(Nc3ccc(N4CCN(C)CC4)cc3)nc2n1-c1cccc(C(C)(C)O)n1
viability, T/C (compound 0.0316 µM): 94% and 91.3% | viability, T/C (compound 0.1 µM): 79.8% and 71.9% | viability, T/C (compound 0.316 µM): 32.5% and 35.4% | viability, T/C (compound 1 µM): 27% and 31.5% | viability, T/C (compound 3.16 µM): 25.9% and 28.6% | viability, T/C (compound 10 µM): 12.5% and 11.7% | IC50 (curve of compound): 208 nM and 221 nM

CCCS(=O)(=O)Nc1ccc(F)c(C(=O)c2c[nH]c3ncc(-c4ccc(Cl)cc4)cc23)c1F
viability, T/C (compound 0.0316 µM): 102% and 106% | viability, T/C (compound 0.1 µM): 107% and 108% | viability, T/C (compound 0.316 µM): 99.7% and 108% | viability, T/C (compound 1 µM): 95.7% and 90.7% | viability, T/C (compound 3.16 µM): 67.7% and 69.2% | viability, T/C (compound 10 µM): 37% and 39.9% | IC50 (curve of compound): 6160 nM and 6680 nM

Cn1cnc2c(F)c(Nc3ccc(Br)cc3Cl)c(C(=O)NOCCO)cc21 + CC(C)NCC(C(=O)N1CCN(c2ncnc3c2C(C)CC3O)CC1)c1ccc(Cl)cc1
IC50 [1]: 95.2 nM | IC50 [2]: < 9.49 nM | IC50 [3]: < 9.49 nM | IC50 [4]: < 9.49 nM | IC50 [5]: 160 nM | viability, T/C [6]: 77% | viability, T/C [7]: 66.9% | viability, T/C [8]: 45.5% | viability, T/C [9]: 38.7% | viability, T/C (second compound 0.1 µM, first compound 0.949 µM): 27.1% | viability, T/C (second compound 0.1 µM, first compound 3 µM): 14.7% | viability, T/C [10]: 49.5% | viability, T/C [11]: 39.9% | viability, T/C [12]: 33.7% | viability, T/C [13]: 30.6% | viability, T/C (second compound 0.316 µM, first compound 0.949 µM): 17.4% | viability, T/C (second compound 0.316 µM, first compound 3 µM): 11.2% | viability, T/C [14]: 44.3% | viability, T/C [15]: 32% | viability, T/C [16]: 30.4% | viability, T/C [17]: 17.7% | viability, T/C (second compound 1 µM, first compound 0.949 µM): 12.5% | viability, T/C (second compound 1 µM, first compound 3 µM): 8.67% | viability, T/C (second compound 3.16 µM, first compound 0.00949 µM): 42.9% | viability, T/C (second compound 3.16 µM, first compound 0.03 µM): 35.3% | viability, T/C (second compound 3.16 µM, first compound 0.0949 µM): 28.6% | viability, T/C (second compound 3.16 µM, first compound 0.3 µM): 22.4% | viability, T/C (second compound 3.16 µM, first compound 0.949 µM): 15.8% | viability, T/C (second compound 3.16 µM, first compound 3 µM): 11.9% | viability, T/C (second compound 10 µM, first compound 0.00949 µM): 64% | viability, T/C (second compound 10 µM, first compound 0.03 µM): 68.1% | viability, T/C (second compound 10 µM, first compound 0.0949 µM): 58.7% | viability, T/C (second compound 10 µM, first compound 0.3 µM): 38.7% | viability, T/C (second compound 10 µM, first compound 0.949 µM): 14.6% | viability, T/C (second compound 10 µM, first compound 3 µM): 4.33%

Cn1ncc(Cl)c1-c1cc(C(=O)NC(CN)Cc2cccc(F)c2)sc1Cl (stereo not drawn) + CC(C)NCC(C(=O)N1CCN(c2ncnc3c2C(C)CC3O)CC1)c1ccc(Cl)cc1
IC50 [1]: 4960 nM | IC50 [2]: 4800 nM | IC50 [3]: 3750 nM | IC50 [4]: 4140 nM | IC50 [5]: 2630 nM | viability, T/C (second compound 0.1 µM, first compound 0.0316 µM): 94.7% | viability, T/C (second compound 0.1 µM, first compound 0.1 µM): 87.5% | viability, T/C (second compound 0.1 µM, first compound 0.316 µM): 75.5% | viability, T/C (second compound 0.1 µM, first compound 1 µM): 61.1% | viability, T/C (second compound 0.1 µM, first compound 3.16 µM): 90.1% | viability, T/C (second compound 0.1 µM, first compound 10 µM): 0.23% | viability, T/C (second compound 0.316 µM, first compound 0.0316 µM): 82.7% | viability, T/C (second compound 0.316 µM, first compound 0.1 µM): 73.1% | viability, T/C (second compound 0.316 µM, first compound 0.316 µM): 79.9% | viability, T/C (second compound 0.316 µM, first compound 1 µM): 63.2% | viability, T/C (second compound 0.316 µM, first compound 3.16 µM): 92.3% | viability, T/C (second compound 0.316 µM, first compound 10 µM): 0.22% | viability, T/C (second compound 1 µM, first compound 0.0316 µM): 47.9% | viability, T/C (second compound 1 µM, first compound 0.1 µM): 59.8% | viability, T/C (second compound 1 µM, first compound 0.316 µM): 54.6% | viability, T/C (second compound 1 µM, first compound 1 µM): 56.6% | viability, T/C (second compound 1 µM, first compound 3.16 µM): 74.3% | viability, T/C (second compound 1 µM, first compound 10 µM): 0.2% | viability, T/C (second compound 3.16 µM, first compound 0.0316 µM): 50.1% | viability, T/C (second compound 3.16 µM, first compound 0.1 µM): 59.1% | viability, T/C (second compound 3.16 µM, first compound 0.316 µM): 66.1% | viability, T/C (second compound 3.16 µM, first compound 1 µM): 70.3% | viability, T/C (second compound 3.16 µM, first compound 3.16 µM): 80.8% | viability, T/C (second compound 3.16 µM, first compound 10 µM): 0.2% | viability, T/C (second compound 10 µM, first compound 0.0316 µM): 67.2% | viability, T/C (second compound 10 µM, first compound 0.1 µM): 73% | viability, T/C (second compound 10 µM, first compound 0.316 µM): 69.5% | viability, T/C (second compound 10 µM, first compound 1 µM): 73.8% | viability, T/C (second compound 10 µM, first compound 3.16 µM): 46.1% | viability, T/C (second compound 10 µM, first compound 10 µM): 0.24%

Cn1cnc2c(F)c(Nc3ccc(Br)cc3Cl)c(C(=O)NOCCO)cc21
viability, T/C (compound 0.00949 µM): 79.6% and 64.7% | viability, T/C (compound 0.03 µM): 69.7% and 59.6% | viability, T/C (compound 0.0949 µM): 57.5% and 53.9% | viability, T/C (compound 0.3 µM): 48.1% and 43.7% | viability, T/C (compound 0.949 µM): 38.3% and 35.9% | viability, T/C (compound 3 µM): 19.1% and 15% | IC50 (curve of compound): 241 nM and 167 nM

CCN1CCN(Cc2ccc(Nc3ncc(F)c(-c4cc(F)c5nc(C)n(C(C)C)c5c4)n3)nc2)CC1
viability, T/C (compound 0.01 µM): 97.5% [middle of 13 runs] | viability, T/C (compound 0.0316 µM): 82.1% [middle of 13 runs] | viability, T/C (compound 0.1 µM): 63.8% [middle of 13 runs] | viability, T/C (compound 0.316 µM): 57.4% [middle of 13 runs] | viability, T/C (compound 1 µM): 59.1% [middle of 13 runs]

CC(=O)c1c(C)c2cnc(Nc3ccc(N4CCNCC4)cn3)nc2n(C2CCCC2)c1=O + CCN1CCN(Cc2ccc(Nc3ncc(F)c(-c4cc(F)c5nc(C)n(C(C)C)c5c4)n3)nc2)CC1
IC50 (curve of first compound, second compound 0.01 µM): > 300 nM | IC50 (curve of first compound, second compound 0.0316 µM): > 300 nM | IC50 [1]: > 300 nM | IC50 [2]: > 300 nM | IC50 [3]: > 300 nM | viability, T/C (second compound 0.01 µM, first compound 0.000949 µM): 101% | viability, T/C (second compound 0.01 µM, first compound 0.003 µM): 83.8% | viability, T/C (second compound 0.01 µM, first compound 0.00949 µM): 75.6% | viability, T/C (second compound 0.01 µM, first compound 0.03 µM): 71.8% | viability, T/C (second compound 0.01 µM, first compound 0.0949 µM): 58.4% | viability, T/C (second compound 0.01 µM, first compound 0.3 µM): 60% | viability, T/C (second compound 0.0316 µM, first compound 0.000949 µM): 80.1% | viability, T/C (second compound 0.0316 µM, first compound 0.003 µM): 83.4% | viability, T/C (second compound 0.0316 µM, first compound 0.00949 µM): 71.1% | viability, T/C (second compound 0.0316 µM, first compound 0.03 µM): 58.4% | viability, T/C (second compound 0.0316 µM, first compound 0.0949 µM): 56.7% | viability, T/C (second compound 0.0316 µM, first compound 0.3 µM): 54.1% | viability, T/C (second compound 0.1 µM, first compound 0.000949 µM): 57.1% | viability, T/C (second compound 0.1 µM, first compound 0.003 µM): 62.2% | viability, T/C [6]: 61.4% | viability, T/C [7]: 52.4% | viability, T/C [8]: 54.3% | viability, T/C [9]: 56% | viability, T/C (second compound 0.316 µM, first compound 0.000949 µM): 54% | viability, T/C (second compound 0.316 µM, first compound 0.003 µM): 53.3% | viability, T/C [10]: 55.3% | viability, T/C [11]: 61.4% | viability, T/C [12]: 55.2% | viability, T/C [13]: 60.4% | viability, T/C (second compound 1 µM, first compound 0.000949 µM): 67.8% | viability, T/C (second compound 1 µM, first compound 0.003 µM): 61% | viability, T/C [14]: 68.3% | viability, T/C [15]: 64.8% | viability, T/C [16]: 65.6% | viability, T/C [17]: 57.2%

— PubChem BioAssay AID2060337 (Molecular Pharmacology Branch, DTP, NCI, 2025)
